Measured values published in US12383537B2, “(3S)-and (3R)-6,7-bis(hydroxymethyl)-1H,3H-pyrrolo[1,2-c]thiazoles as P53 activators” (UNIVERSIDADE DE COIMBRA, priority 2018, dated 2025).
Values belong to the molecule of their own block, whether it stands above or below them.

Assays:
[1] = test system: skin cancer cell lines (A375, SCC4925, A375C5 cells); test: anti-proliferative effect in skin cancer cell lines; type: cell-based; details: range over A375, SCC4925, A375C5 cells
[2] = test system: Huh-7 (mutp53 Y220C); test: sulforhodamine B (SRB) growth inhibition assay; type: cell-based; details: Homo sapiens, Huh-7, 48 hours incubation
Method: (§1) Cancer cells were plated in 96-well plates and incubated for 24 hours. Cells were then exposed to serial dilutions of compound (from 0.3 to 80 μM). The effect of the compound was analyzed following 48 hours incubation, using the sulforhodamine B (SRB) assay. The solvent DMSO corresponding to the maximum concentration used in these assays (0.025%) was included as control. Results are the mean±S.E.M. of 3-5 independent experiments.

[3] = test system: HepG2 (wtp53); test: sulforhodamine B (SRB) growth inhibition assay; type: cell-based; details: Homo sapiens, HepG2, 48 hours incubation
Method: as §1

[4] = test system: H1299 (p53-null); test: sulforhodamine B (SRB) growth inhibition assay; type: cell-based; details: Homo sapiens, NCI-H1299, H1299, 48 hours incubation
Method: as §1

[5] = test system: H460 (wtp53); test: sulforhodamine B (SRB) growth inhibition assay; type: cell-based; details: Homo sapiens, NCI-H460, H460, 48 hours incubation
Method: as §1

[6] = test system: SW837 (mutp53 R248W); test: sulforhodamine B (SRB) growth inhibition assay; type: cell-based; details: Homo sapiens, SW837, 48 hours incubation
Method: as §1

[7] = test system: MDA-MB-468 (mut p53 R273H); test: sulforhodamine B (SRB) growth inhibition assay; type: cell-based; details: Homo sapiens, MDA-MB-468, 48 hours incubation
Method: as §1

[8] = test system: HT-29 (mutp53 R273H); test: sulforhodamine B (SRB) growth inhibition assay; type: cell-based; details: Homo sapiens, HT-29, 48 hours incubation
Method: as §1

[9] = test system: MCF7 breast cancer cell lines; details: cited from earlier work
[10] = test system: HCT116 p53+/+; test: sulforhodamine B (SRB) growth inhibition assay; type: cell-based, human; details: for IC50: HCT116 p53+/+, 48 hours incubation, SRB assay; for p53-dependence of anti-proliferative effect: comparison of IC50 in HCT116 p53+/+ and HCT116 p53−/−
Method: as §1, with “plated at 5.0×10^3 cells/well” for “plated”, “of MANIO, CP-31398 or PRIMA-1MET” for “of compound”, “the compounds” for “the compound”
as §1

[11] = test system: HCT116 p53−/−; test: sulforhodamine B (SRB) growth inhibition assay; type: cell-based, human
Method: as §1, with “plated at 5.0×10^3 cells/well” for “plated”, “of MANIO, CP-31398 or PRIMA-1MET” for “of compound”, “the compounds” for “the compound”
as §1

[12] = test system: p53-null cancer cells (colon HCT116 p53−/−, breast H1299 and HCC1937 cells); test: growth inhibition (SRB) in panel of p53-null cancer cell lines; type: cell-based; details: Homo sapiens, range over HCT116 p53−/−, 48 hours, read-out: IC50 (concentration of compound that causes 50% growth inhibition)
Method: (§2) FIG. 2 illustrates the growth inhibitory effect of MANIO in a panel of human cancer cell lines (HCT116 p53+/+, MCF7, H460, MDA-MB-468, HT-29, SW837, Huh-7, HCT116 p53−/−, H1299, HCC1937). IC50 values were determined by the sulforhodamine B assay after 48 hours treatment with MANIO. Data are mean±SEM (n=4-5).
(§3) The compound (3S)-6,7-bis(hydroxymethyl)-1H,3H-pyrrolo[1,2-c]thiazole, MANIO, inhibited the growth of tumor cells expressing wild-type and mutant p53 forms, with much lower anti-proliferative effect on p53-null cancer cells: The activity of the compound (FIG. 1, with R^1═H, R^2=Ph and R^3=Me) was tested in an array of cancer cell lines with different p53 status.

[13] = test system: mutant p53 forms ectopically expressed in p53-null H1299 cells; test: growth inhibition (SRB) in mutant p53-transfected H1299 cells; type: cell-based, human; details: R282W, R248W, R280K, R273H, R273C, G245D, R175H, R248Q; 48 hours; versus empty vector
Method: FIG. 7 illustrates the growth inhibitory effect of MANIO in mutant p53-transfected H1299 cells. H1299 cells were transfected with pcDNA3 plasmid expressing different p53 mutants (R282W, R248W, R280K, R273H, R273C, G245D, R175H, R248Q, Y220C, G245S), or with the empty pcDNA3 plasmid, using ScreenFect®A. The growth inhibitory effect was evaluated by sulforhodamine B assay after 48 hours treatment with MANIO.

[14] = test system: p53 in HCT116 p53+/+ cells; test: Western blot and RT-qPCR of p53 and p53 target genes; type: cell-based, human
Method: FIG. 6 illustrates the MANIO effect on protein levels of p53 (A), the mRNA (B) and protein (C) expression levels of p53 target genes and PARP cleavage, in HCT116 p53+/+ and HCT116 p53−/− cells. (B) mRNA levels of p53 target genes in HCT116 cells (MDM2, CDKN1A, GADD45A, BAX, TNFRSF10B, PUMA, NOXA), after 48 hours treatment with MANIO, or DMSO, determined by RT-qPCR. Fold of induction is relative to DMSO. […] Immunoblots represent one of three independent experiments. GAPDH was used as a loading control.

[15] = test system: HCT116 p53+/+ and HCT116 p53−/− cells; test: colony formation assay; type: cell-based, human; details: 14 days of treatment
Text: FIG. 4 illustrates the effect of MANIO on HCT116 p53+/+ (A) and HCT116 p53−/− (B) cell colony formation after 14 days of treatment.
MANIO had p53-dependent anti-proliferative effect in colon carcinoma cells: The activity of the compound as wild-type p53 activator was studied in colon carcinoma cells with (HCT116 p53+/+) and without (HCT116 p53−/−) p53 (FIG. 3; Table 1). The IC50 value of MANIO in HCT116 p53+/+ cells was about […] lower than that obtained in HCT116 p53−/− cells, indicating a p53-dependent anti-proliferative effect.

[16] = test system: HCT116 cells; test: cell cycle analysis by flow cytometry (propidium iodide); type: cell-based, human; details: 1 μM and 2.5 μM, 48 hours
Method: (§4) FIG. 5 illustrates the effect of 1 μM and 2.5 μM MANIO on cell cycle progression (A) and apoptosis (B) in HCT116 p53+/+ and HCT116 p53−/− cells. (A) Cell cycle phases were analysed by flow cytometry using propidium iodide (PI) and quantified using the FlowJo software, after 48 hours MANIO treatment. […] (B) Apoptosis was analysed by flow cytometry using FITC-Annexin V and PI, after 48 hours or 72 hours MANIO treatment.

[17] = test system: HCT116 p53+/+ cells; test: Comet assay (genotoxicity); type: cell-based, human; details: MANIO 1 and 2.5 μM; etoposide 50 μM
Text: Scale bar=20 μm; Magnification=200×.
For that purpose, the Comet assay was used, which measures the ability of genotoxic agents to induce DNA strand breaks in eukaryotic cells.

[18] = test system: HCT116 cells; test: apoptosis by flow cytometry (FITC-Annexin V and PI); type: cell-based, human; details: 1 μM and 2.5 μM, 48 hours or 72 hours
Method: as §4

[19] = test system: wild-type p53-expressing cancer cells (colon HCT116 p53+/+, breast MCF7, and lung H460 cells); test: growth inhibition (SRB) in panel of wild-type p53 cancer cell lines; type: cell-based; details: Homo sapiens, range over HCT116 p53+/+, 48 hours, read-out: IC50 (concentration of compound that causes 50% growth inhibition)
Method: as §2, §3

[20] = test system: HCT116 p53+/+ tumors; test: in vivo xenograft mouse model; set-up: species or system Swiss nude mice; details: versus vehicle
Method: FIG. 10 illustrates the in vivo antitumor activity of MANIO. (A) Swiss nude mice were implanted subcutaneous with xenografts of 1.5×10^6 HCT116 p53+/+ cells. The treatment was initiated when palpable tumors were established (˜100 mm3) and consisted in 4 intraperitoneal injections (2 times per week) of vehicle (control) or 100 mg/kg of MANIO (n=5 for each group). […] (B) The tumor weight after MANIO or vehicle (control) treatment was measured; data are mean±SEM (*p<0.05; unpaired Student's t-test). […] This description is of course not in any way restricted to the forms of implementation presented herein and any person with an average knowledge of the area can provide many possibilities for modification thereof without departing from the general idea as defined by the claims. The preferred forms of implementation described above can obviously be combined with each other. The following claims further define the preferred forms of implementation.

[21] = test system: mutant p53-expressing cancer cells (breast MDA-MB-468, rectum SW837, colon HT29, and hepatocarcinoma Huh-7 cells); test: growth inhibition (SRB) in panel of mutant p53 cancer cell lines; type: cell-based; details: Homo sapiens, range over MDA-MB-468, SW837, HT29, Huh-7, 48 hours, read-out: IC50 (concentration of compound that causes 50% growth inhibition)
Method: as §2, §3

[22] = test system: HCT116 p53+/+ cells; test: wound healing assay (cell migration); type: cell-based, human; details: 0.2 and 0.375 μM
Method: FIG. 9 illustrates the prevention of HCT116p53+/+ cell migration by MANIO. Confluent cells were treated with 0.20 and 0.375 μM MANIO or DMSO, and observed at different time-points in the wound healing assay (scale bar=50 μm and magnification=100×).
MANIO prevented cell migration of human colon cancer cells: The effect of MANIO on the migration ability of HCT116 p53+/+ cells was also studied.

[23] = Homo sapiens, HCT-116, 48 hours incubation

IC50 [1]: 25 to 35 µM
IC50 [2]: 6.43 ± 0.32 µM
IC50 [3]: 50.3 ± 1.63 µM
IC50 [4]: 25.5 ± 2.38 µM
IC50 [5]: 1.8 ± 0.089 µM
IC50 [6]: 7.35 ± 0.89 µM
IC50 [7]: 0.91 ± 0.0095 µM
IC50 [8]: 5.88 ± 1.28 µM
IC50 ([10]; Homo sapiens, HCT-116): 5.11 ± 0.42 µM
IC50 [11, 23]: 51.8 ± 2.73 µM
Structure (SMILES): Cc1c(CO)c(CO)c2n1[C@@H](c1ccccc1)SC2 [(3R)-6,7-Bis (hydroxymethyl)-5-methyl-3-phenyl-1H,3H-pyrrolo[1,2-c]thiazole]
anti-proliferative activity [9]: potent anti-proliferative activity
p53-dependence of anti-proliferative effect [10]: relevant p53-dependent anti-proliferative activity

IC50 [10]: 3.4 ± 0.1 µM
IC50 ([11]; 48 hours incubation): 7.3 ± 0.6 µM
Structure (SMILES): COc1ccc(/C=C/c2nc(NCCCN(C)C)c3ccccc3n2)cc1 [CP-31398, reference compound]
p53-dependence of anti-proliferative effect [10]: lower p53-dependence than the compound

IC50 [12]: 28.5 to 48.2 µM
IC50 [1]: 25 to 35 µM
IC50 [19]: 0.2 to 0.96 µM
IC50 in HCT116 p53+/+ cells lower than in HCT116 p53−/− cells ([10]; HCT116 p53+/+ versus HCT116 p53−/−): about 50 fold
IC50 ([10]; Homo sapiens, HCT-116): 0.96 ± 0.04 µM
IC50 [11, 23]: 48.2 ± 1.97 µM
IC50 [21]: 0.2 to 3.2 µM
Structure (SMILES): Cc1c(CO)c(CO)c2n1[C@H](c1ccccc1)SC2 [MANIO, (3S)-6,7-Bis(hydroxymethyl)-5-methyl-3-phenyl-1H,3H-pyrrolo[1,2-c]thiazole]
growth inhibition of cells transfected with p53 mutants [13]: significant growth inhibition
anti-proliferative activity [9]: potent anti-proliferative activity
mRNA and proteins encoded by p53 target genes ([14]; 1 μM): increased
p53 protein levels ([14]; 1 μM, 24, 48 and 72 hours): increased the p53 protein levels
colony-forming ability [15]: reduce the colony-forming ability of HCT116 in a p53-dependent manner
cell cycle progression [16]: induction of a G2/M-phase cell arrest
percentage of tail DNA (DNA damage) [17]: did not significantly increase the percentage of tail DNA
apoptosis [18]: apoptotic cell death
mice weight during treatment ([20]; 100 mg/kg intraperitoneal, 2 times per week): no significant differences between control and MANIO-treated mice weight
growth of the HCT116 p53+/+ tumors ([20]; four intraperitoneal administrations of 100 mg/kg): significantly inhibited
wound closure [22]: significantly reduced the wound closure

Structure (SMILES): COCC1(CO)C(=O)C2CCN1CC2 (stereo not drawn) [PRIMA-1^MET, reference compound]
IC50 [10]: 19.9 ± 4 µM
p53-dependence of anti-proliferative effect [10]: lower p53-dependence than the compound
IC50 ([11]; 48 hours incubation): 13.1 ± 2 µM
